Reference: US20030096433A1, “Homogeneous fluorescence assay” (Evotec Analytical Systems GmbH, priority 1999, published 2003)
Values joined by “and” are separate entries in the source; they are usually repeats but may differ in a detail not shown here. Equal entries are not always repeated. Where two headings read alike, the source gives them in different places. Values belong to the molecule of their own block, whether it stands above or below them.

Assays:
p60src kinase = target: T1, p60src kinase (Homo sapiens, UniProt P12931); assay: Protein tyrosine kinase pharmaceutical screening assay; format: biochemical
T1 construct: purchased Upstate Biotechnology
From the text: At first p60src (Upstate Biotechnology) phosphorylates the P2 substrate. The phos-phorylated and biotinylated P1 peptide is depicted as string of beads with attached “P” (phosphate) and triangle (biotin). The phosphorylated P2 competes with P1 for binding to the TRITC-labeled anti-phosphotyrosine antibody. In absence of enzyme activity all fluorescent antibodies are bound to carrier particles via P1 which means maximal binding to carrier particles and correspondingly minimum particle number. The phosphorylated P2 catches the fluorescent antibody preventing the formation of complexes. In that case no binding to carrier particles occurs and maximal particle number will be measured. Potential inhibitors are incubated with the enzyme before the enzyme reaction is started by adding a mixture of P2 and ATP.

anti-estradiol antibody = assay: 17-β-Estradiol competitive carrier particle assay (FCS); format: binding; conditions: for IC50: competition with TAMRA-estradiol, carrier particles 160 nm, FCS
From the text: The anti-estradiol-antibody was kindly provided by Dr. Schumacher (Institute of Fertility Research, Hamburg). 17-β-estradiol was obtained from Sigma. The protein A coated carrier particles (Protein A Ferrofluid™) with a mean diameter of 160 nm were from Immunicon. The optical set-up was the same as described in Example 1. […] Data evaluation and fitting procedures were the same as described in Example 1. The concentration of the conjugate (TAMRA-estradiol), the corresponding antibody and the carrier particles were kept constant in a specific series of experiments. […] The competitive assays were carried out as follows: The TAMRA conjugate of estradiol was mixed with the corresponding unlabelled molecules. […] Some experiments with JA190-estradiol conjugates were carried out in E-NAP buffer (200 mM sodium acetate, 150 mM NaCl, 0.2% BSA, pH 4). […] All estradiol conjugates, except for the BODIPY™-derivative, bound to an anti-estradiol antibody with similar affinity. […] All other conjugate-antibody interactions remained strong. […] TAMRA-estradiol was used for further assay evaluation.

[1] = tested on: anti-estradiol antibodies; assay: Estradiol competition assay (fluorescence intensity distribution analysis); format: binding, Rabbit; conditions: 5 nM estradiol-Tamra, 0.18 nM carrier particles, 10 x 2 s
[2] = target: anti-theophylline antibody; conditions: read-out: K2 (KD value for the competitor)

- Km (p60src kinase; turn over velocity versus ATP concentration, FIG. 13, read-out: Michaelis constant KM): 16.2 ± 4 µM
SMILES: Nc1ncnc2c1ncn2[C@@H]1O[C@H](COP(=O)(O)OP(=O)(O)OP(=O)(O)O)[C@@H](O)[C@H]1O [ATP]

- IC50 ([1]; FIG. 8A, read-out: IC50 from I1 (intensity of free conjugate), hyperbolic fit): 11.9 ± 2.4 nM
- IC50 ([1]; FIG. 8B, read-out: IC50 from I2 (intensity of carrier particles with bound conjugate), hyperbolic fit): 13.3 nM and 13.2 nM
- IC50 ([1]; FIG. 8C, read-out: IC50 from I2/(I1+I2), hyperbolic fit): 8.8 ± 1.1 nM
- IC50 (anti-estradiol antibody; read-out: IC50 using the binding degree): 20 nM
- IC50 (anti-estradiol antibody; read-out: IC50 using the correlation amplitude gB): 3 nM
SMILES: C[C@]12CC[C@@H]3c4ccc(O)cc4CC[C@H]3[C@@H]1CC[C@@H]2O [estradiol, 17-β-estradiol]

- Kd ([2]; fit with K1 fixed at 10^−11 M): 0.083 nM
- Kd ([2]; simultaneous fit of gB and binding degree to equations 1 and 8, K1 variable): 0.0025 nM
SMILES: Cn1c(=O)c2[nH]cnc2n(C)c1=O [theophylline, Theophylline]

Second part, the molecule before the results:

SMILES: Cc1cc(O)c2c(c1)C(=O)c1cc(O)cc(O)c1C2=O [Emodin]
- IC50 (p60src kinase; dose-response curves, FIG. 12): 50000 to 100000 nM

SMILES: O=CN/C=C/c1cc(O)ccc1O [Erbstatin]
- Activity on p60src kinase (in words) (p60src kinase; dose-response curves, FIG. 12): inactive

SMILES: CN(C)c1ccc2c(-c3ccc(C(=O)NCCOCCOCCNC(=O)CON=C4CC5C(CCC6(C)C(O)CCC56)c5ccc(O)cc54)cc3C(=O)[O-])c3ccc(N(C)C)cc3[o+]c2c1 (centres unmarked) [TAMRA-estradiol]
- Kd (anti-estradiol antibody; simultaneous fit of gB and binding degree to equations 1 and 8, read-out: K1 (KD value for the conjugate)): 0.0014 nM
